We go through nine molecules from PubChem BioAssay (NCI).

“And” between values parts separate entries of the source, which are not always exact repeats. Equal entries are not always repeated.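 Test compounds were applied to cells in 96-well plates for 48 hours at 5 doses. GI50 marks 50% less growth. TGI is the concentration that stops growth completely.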 Some results are limits rather than exact numbers.

Test in all cases: NCI anticancer screen, dose series, 48 h
The test system of assay [1] is HCT-15 colon.
Assay [2] relates to UACC-257 melanoma.
Assay [3] relates to HL-60(TB) leukemia.
For assay [4], the system named is NCI-H460 lung.
For assay [5], the system named is COLO 205 colon.
Assay [6] relates to NCI-H23 lung.
The subject of assay [7] is IGROV1 ovarian.
The subject of assay [8] is MCF7 breast.

As for `CC1OC(OC2C(O[C@H]3CC[C@@]4(C)C(=CC[C@H]5[C@@H]6C[C@@H]7O[C@]8(CC[C@@H](C)CO8)[C@@H](C)[C@@H]7[C@@]6(C)CC[C@@H]54)C3)OC(CO)C(OC3OC(CO)C(O)C3O)C2O)C(O)C(O)C1O` (stereo not given in full), the GI50 in assay [1] is 621 nM; in assay [2], 1.14 µM; in assay [3], 506 nM; in assay [5], 0.381 µM; in assay [6] it was 1230 nM; in assay [7] it was 450 nM. The GI50 in assay [8] was 1110 nM. Besides, the TGI was 1.99 µM and 1.94 µM in assay [1]; 1.71 µM and 2.35 µM in assay [2]; 1.77 µM and 1.89 µM in assay [3]; 1.53 µM in assay [4]; 1.24 µM and 1.29 µM in assay [5]; 1.6 µM and 2.47 µM in assay [6]. Moreover, the TGI in assay [7] was 1.61 µM and 1.62 µM; in assay [8], 1.52 µM and 2.3 µM.

For the molecule `CC1=C(CNO)C2=C(C)C3(CC3)[C@@](C)(O)C(=O)C2=C1`, the GI50 is 1710 nM in assay [1]; 2.78 µM in assay [2]; 2770 nM in assay [3]; 0.358 µM in assay [4]; 1.09 µM in assay [5]; 473 nM in assay [6]. Further, the values for the GI50 in assay [7] and in assay [8] were 898 nM and 763 nM, respectively. The TGI in assay [1] worked out at 4.99 µM; in assay [2] it was 7.64 µM; in assay [3], 30.7 µM; in assay [4], 3.87 µM; in assay [5], 3.83 µM; in assay [6] it was 2.72 µM. The TGI in assay [7] was 7 µM; in assay [8] it was 6.73 µM.

As for `O=c1nc2[nH]c3c(-c4n[nH]c(=O)[nH]c4=O)cccc3c2n[nH]1`, the GI50 in assay [1] was > 100000 nM; in assay [2] it was > 100 µM; in assay [3], > 100000 nM; in assay [4] it was > 100 µM; in assay [5], > 100 µM; in assay [6], > 100000 nM. Also, the GI50 in assay [7] and in assay [8] was > 100000 nM in each case. The TGI in assay [1], in assay [2], in assay [3], in assay [4], in assay [5] and in assay [6] was > 100 µM throughout. The TGI in assay [7] and in assay [8] was > 100 µM each time.

Consider `COc1ccc(/C=C\c2cc(OC)c(OC)c(OC)c2)c(NS(=O)(=O)c2ccc(C(C)(C)C)cc2)c1O`, for which the GI50 in assay [1] is 234 nM; in assay [2], 13.2 µM; in assay [3], 39 nM; in assay [4], 0.375 µM; in assay [5], 3.32 µM; in assay [6] it was 497 nM. Further, the GI50 was 986 nM in assay [7] and 133 nM in assay [8]. The TGI in assay [1] was 16.2 µM; in assay [2] it was 32.1 µM; in assay [3] it was 2.34 µM; in assay [4], 11 µM; in assay [5], 12.5 µM; in assay [6] it was 17.5 µM. Further, the TGI worked out at 35.8 µM in assay [7] and 15.7 µM in assay [8].

As to `CCCCC[C@@H](C/C=C/CCC(=O)NC/C(=C/Cl)[C@H]1C(=O)C(C)(C)C(=O)[C@@H](C)[C@@]1(C)O)OC`, the GI50 in assay [1] is 17100 nM; in assay [2], 18.4 µM; in assay [3], 19100 nM; in assay [4], 17.7 µM; in assay [5] it was 18.5 µM; in assay [6] it was 17000 nM. The GI50 in assay [7] was 16400 nM; in assay [8], 19200 nM. Further, the TGI came out at 32 µM in assay [1]; 34.3 µM in assay [2]; 40.6 µM in assay [3]; 35.1 µM in assay [4]; 33.6 µM in assay [5]; 33.9 µM in assay [6]. Further, the TGI in assay [7] came out at 31.3 µM; in assay [8] it was 38.8 µM.

Turning to `COC(=O)[C@]1(C)CCC[C@]2(C)[C@@H]1CCC13C[C@@H](C=CO1)[C@@H](C)CC32O` (stereo not given in full), the GI50 in assay [1] is > 100000 nM; in assay [2], 70 µM; in assay [3], 45400 nM; in assay [4], 43.8 µM; in assay [5] it was 64.4 µM; in assay [6], 20300 nM. Moreover, the results for the GI50 in assay [7] and in assay [8] were > 100000 nM and 25700 nM, respectively. The TGI in assay [1], in assay [2], in assay [3], in assay [4], in assay [5] and in assay [6] was > 100 µM in each case. Also, the TGI in assay [7] and in assay [8] was > 100 µM each time.

As for `OCC#Cc1ccccc1C#Cc1ccc(C#Cc2ccccc2)cc1`, the GI50 in assay [1] was 18100 nM; in assay [2], 27.6 µM; in assay [3], 489 nM; in assay [4] it was 20.5 µM; in assay [5] it was 24.9 µM; in assay [6], 18200 nM. Further, the values for the GI50 in assay [7] and in assay [8] were 28400 nM and 15900 nM, respectively. Moreover, the TGI in assay [1] was 38.5 µM; in assay [2] it was 69.8 µM; in assay [3], > 100 µM; in assay [4] it was 79.8 µM; in assay [5] it was 70.7 µM; in assay [6], 37 µM. Also, the TGI was > 100 µM in assay [7] and 38.3 µM in assay [8].

In the case of `COc1c(O)c2c3c(c1OC)-c1ccccc1CC3N(S(=O)(=O)c1ccc(C)cc1)CC2` (stereo not given), the GI50 in assay [1] is 2050 nM; in assay [2] it was 1.8 µM; in assay [3], 1180 nM; in assay [4] it was 1.58 µM; in assay [5] it was 19.2 µM; in assay [6], 1170 nM. The GI50 in assay [7] is 2130 nM; in assay [8], 1650 nM. The TGI in assay [1] is > 50 µM; in assay [2], > 50 µM; in assay [3] it was 7.46 µM; in assay [4], > 50 µM; in assay [5], > 50 µM; in assay [6], 2.71 µM. In addition, the TGI in assay [7] is > 50 µM; in assay [8] it was 23.5 µM.

As to `CN(C)c1ccc(C2CC(C)(O)Oc3cc4c(cc32)OCO4)cc1` (stereo not given), the TGI in assay [1] is > 100 µM; in assay [2], > 100 µM; in assay [3], > 100 µM; in assay [4], > 100 µM; in assay [5], 50.3 µM; in assay [6], > 100 µM. Also, the TGI in assay [7] and in assay [8] was > 100 µM throughout.
